Source: ChEMBL document CHEMBL1143583, “Anchor-GRIND: filling the gap between standard 3D QSAR and the GRid-INdependent descriptors” (J Med Chem, 2005)

Columns and labels:
[1] = biological target: Genome polyprotein (Hepatitis C virus genotype 1a (isolate 1) (HCV), UniProt P26664); assay: Inhibitory concentration against hepatitis C virus NS3 protease (IC50 spans 2.5 log units); parameters: species or system Hepacivirus hominis; settings: read-out: Log 1/IC50 (converted)
[2] = biological target: Acetylcholinesterase (Homo sapiens, UniProt P22303); assay: Inhibitory concentration against Acetylcholinesterase; (range = 2-20 uM)
Sequence of Acetylcholinesterase (P22303 whole entry): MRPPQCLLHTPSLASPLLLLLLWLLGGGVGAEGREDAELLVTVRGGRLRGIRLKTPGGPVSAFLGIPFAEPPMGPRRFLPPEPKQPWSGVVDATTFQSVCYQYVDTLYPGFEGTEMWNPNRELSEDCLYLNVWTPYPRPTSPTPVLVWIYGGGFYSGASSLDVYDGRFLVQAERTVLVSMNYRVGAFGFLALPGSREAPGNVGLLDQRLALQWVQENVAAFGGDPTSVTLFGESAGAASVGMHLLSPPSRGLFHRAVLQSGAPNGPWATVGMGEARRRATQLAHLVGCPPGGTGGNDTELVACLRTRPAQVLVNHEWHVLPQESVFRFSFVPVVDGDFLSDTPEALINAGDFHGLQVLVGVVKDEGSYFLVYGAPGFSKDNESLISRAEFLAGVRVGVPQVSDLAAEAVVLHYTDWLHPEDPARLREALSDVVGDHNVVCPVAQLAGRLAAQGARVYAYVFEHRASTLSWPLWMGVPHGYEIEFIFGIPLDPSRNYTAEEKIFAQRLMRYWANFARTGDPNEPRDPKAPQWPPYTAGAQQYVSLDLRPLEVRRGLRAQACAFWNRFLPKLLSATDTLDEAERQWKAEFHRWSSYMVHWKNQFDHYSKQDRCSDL

Sequence of Genome polyprotein (P26664 1027-1657 limits assumed): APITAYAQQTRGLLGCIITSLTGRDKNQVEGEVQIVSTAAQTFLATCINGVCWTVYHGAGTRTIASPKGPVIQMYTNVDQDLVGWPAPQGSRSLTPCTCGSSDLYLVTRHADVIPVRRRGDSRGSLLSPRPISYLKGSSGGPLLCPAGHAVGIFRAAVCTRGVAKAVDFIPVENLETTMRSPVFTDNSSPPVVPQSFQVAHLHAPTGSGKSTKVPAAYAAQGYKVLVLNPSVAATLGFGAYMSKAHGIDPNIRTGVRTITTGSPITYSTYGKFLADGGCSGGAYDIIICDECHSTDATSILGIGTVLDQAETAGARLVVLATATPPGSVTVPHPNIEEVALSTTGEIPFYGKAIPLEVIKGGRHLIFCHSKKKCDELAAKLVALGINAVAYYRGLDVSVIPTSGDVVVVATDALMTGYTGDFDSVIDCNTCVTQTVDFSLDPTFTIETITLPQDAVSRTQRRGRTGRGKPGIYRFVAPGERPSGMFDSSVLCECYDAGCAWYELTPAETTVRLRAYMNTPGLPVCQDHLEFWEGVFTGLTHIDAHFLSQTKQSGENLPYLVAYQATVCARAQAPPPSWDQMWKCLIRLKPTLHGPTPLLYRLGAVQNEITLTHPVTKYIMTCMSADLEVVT

SMILES: COc1ccc2nccc(O[C@H]3CC(C(=O)[C@@H](NC(=O)[C@@H](NC(C)=O)C4CCCCC4)C(C)C)[C@H](C(=O)CC4(C(=O)O)CC4)C3)c2c1 (stereo not given in full)
- IC50 [1]: 15.8 µM

SMILES: CC(=O)N[C@H](C(=O)N[C@H](C(=O)C1C[C@H](Oc2ccccc2)C[C@H]1C(=O)CC1(C(=O)O)CC1)C(C)C)C1CCCCC1 (stereo not given in full)
- IC50 [1]: 79.4 µM

SMILES: O=C1CN(CCN2CCOCC2)C(=O)CN1CCC(c1ccccc1)c1ccccc1
- IC50 [2]: 20 µM

SMILES: CC(=O)N[C@H](C(=O)N[C@H](C(=O)C1C[C@H](Oc2ccc(-c3ccccc3)cc2)C[C@H]1C(=O)CC1(C(=O)O)CC1)C(C)C)C1CCCCC1 (stereo not given in full)
- IC50 [1]: 31.6 µM

SMILES: CC(=O)N[C@H](C(=O)N[C@H](C(=O)C1C[C@H](Oc2ccnc3cc(Cl)ccc23)C[C@H]1C(=O)CC1(C(=O)O)CC1)C(C)C)C1CCCCC1 (stereo not given in full)
- IC50 [1]: 2 µM

SMILES: CC(=O)N[C@H](C(=O)N[C@H](C(=O)C1C[C@H](Oc2nccc3ccccc23)C[C@H]1C(=O)CC1(C(=O)O)CC1)C(C)C)C1CCCCC1 (stereo not given in full)
- IC50 [1]: 7.94 µM

SMILES: CC(=O)N[C@H](C(=O)N[C@H](C(=O)C1C[C@H](Oc2cncc3ccccc23)C[C@H]1C(=O)CC1(C(=O)O)CC1)C(C)C)C1CCCCC1 (stereo not given in full)
- IC50 [1]: 3.98 µM

SMILES: CC(=O)N[C@H](C(=O)N[C@H](C(=O)C1C[C@H](Oc2ccc(Cl)cc2)C[C@H]1C(=O)CC1(C(=O)O)CC1)C(C)C)C1CCCCC1 (stereo not given in full)
- IC50 [1]: 50.1 µM

SMILES: COc1ccc(CCN2CC(=O)N(CCc3ccccn3)CC2=O)cc1OC
- IC50 [2]: 20 µM

SMILES: CC(=O)N[C@H](C(=O)N[C@H](C(=O)C1C[C@H](Oc2ccccc2-c2ccc(C(=O)O)cc2)C[C@H]1C(=O)CC1(C(=O)O)CC1)C(C)C)C1CCCCC1 (stereo not given in full)
- IC50 [1]: > 200 µM

SMILES: CC(=O)N[C@H](C(=O)N[C@H](C(=O)C1C[C@H](Oc2cccc(-c3cccc([N+](=O)[O-])c3)c2)C[C@H]1C(=O)CC1(C(=O)O)CC1)C(C)C)C1CCCCC1 (stereo not given in full)
- IC50 [1]: 6.31 µM

SMILES: O=C1CN(CCN2CCCC2)C(=O)CN1CCCn1ccnc1
- IC50 [2]: 20 µM

SMILES: CC(=O)N[C@H](C(=O)N[C@H](C(=O)C1C[C@H](Oc2cccc3cccnc23)C[C@H]1C(=O)CC1(C(=O)O)CC1)C(C)C)C1CCCCC1 (stereo not given in full)
- IC50 [1]: 251 µM

SMILES: CC(=O)N[C@H](C(=O)N[C@H](C(=O)C1C[C@H](Oc2ccnc3cc(C(F)(F)F)ccc23)C[C@H]1C(=O)CC1(C(=O)O)CC1)C(C)C)C1CCCCC1 (stereo not given in full)
- IC50 [1]: 6.31 µM

SMILES: CCN(CC)CCN1CC(=O)N(CCc2ccccc2)CC1=O
- IC50 [2]: 20 µM

SMILES: CC(=O)N[C@H](C(=O)N[C@H](C(=O)C1C[C@H](Oc2ccncc2)C[C@H]1C(=O)CC1(C(=O)O)CC1)C(C)C)C1CCCCC1 (stereo not given in full)
- IC50 [1]: 158 µM

SMILES: CC(=O)N[C@H](C(=O)N[C@H](C(=O)C1C[C@H](Sc2nc3ccccc3s2)C[C@H]1C(=O)CC1(C(=O)O)CC1)C(C)C)C1CCCCC1 (stereo not given in full)
- IC50 [1]: 20 µM

SMILES: CC(=O)N[C@H](C(=O)N[C@H](C(=O)C1C[C@H](Oc2cccc(Br)c2)C[C@H]1C(=O)CC1(C(=O)O)CC1)C(C)C)C1CCCCC1 (stereo not given in full)
- IC50 [1]: 50.1 µM

SMILES: CC(=O)N[C@H](C(=O)N[C@H](C(=O)C1C[C@H](Oc2ccc(I)cc2)C[C@H]1C(=O)CC1(C(=O)O)CC1)C(C)C)C1CCCCC1 (stereo not given in full)
- IC50 [1]: 10 µM

SMILES: COc1ccc2c(O[C@H]3CC(C(=O)[C@@H](NC(=O)[C@@H](NC(C)=O)C4CCCCC4)C(C)C)[C@H](C(=O)CC4(C(=O)O)CC4)C3)ccnc2c1 (stereo not given in full)
- IC50 [1]: 0.794 µM

SMILES: CC(=O)N[C@H](C(=O)N[C@H](C(=O)C1C[C@H](Oc2cccc(N3CCOCC3)c2)C[C@H]1C(=O)CC1(C(=O)O)CC1)C(C)C)C1CCCCC1 (stereo not given in full)
- IC50 [1]: 31.6 µM

SMILES: CC(=O)Nc1cccc(-c2cccc(O[C@H]3CC(C(=O)[C@@H](NC(=O)[C@@H](NC(C)=O)C4CCCCC4)C(C)C)[C@H](C(=O)CC4(C(=O)O)CC4)C3)c2)c1 (stereo not given in full)
- IC50 [1]: 6.31 µM

SMILES: CC(=O)N[C@H](C(=O)N[C@H](C(=O)C1C[C@H](Oc2ccccc2-c2ccccc2)C[C@H]1C(=O)CC1(C(=O)O)CC1)C(C)C)C1CCCCC1 (stereo not given in full)
- IC50 [1]: > 200 µM

SMILES: COc1ccc(-c2ccc(O[C@H]3CC(C(=O)[C@@H](NC(=O)[C@@H](NC(C)=O)C4CCCCC4)C(C)C)[C@H](C(=O)CC4(C(=O)O)CC4)C3)cc2)cc1 (stereo not given in full)
- IC50 [1]: 31.6 µM

SMILES: CC(=O)N[C@H](C(=O)N[C@H](C(=O)C1C[C@H](Oc2ccccc2Br)C[C@H]1C(=O)CC1(C(=O)O)CC1)C(C)C)C1CCCCC1 (stereo not given in full)
- IC50 [1]: 25.1 µM

SMILES: CC(=O)N[C@H](C(=O)N[C@H](C(=O)C1C[C@H](Oc2ccc(Br)cc2)C[C@H]1C(=O)CC1(C(=O)O)CC1)C(C)C)C1CCCCC1 (stereo not given in full)
- IC50 [1]: 25.1 µM

SMILES: CC(=O)N[C@H](C(=O)N[C@H](C(=O)C1C[C@H](O)C[C@H]1C(=O)CC1(C(=O)O)CC1)C(C)C)C1CCCCC1 (stereo not given in full)
- IC50 [1]: > 1000 µM

SMILES: CC(=O)N[C@H](C(=O)N[C@H](C(=O)C1C[C@H](Oc2ccc(F)cc2)C[C@H]1C(=O)CC1(C(=O)O)CC1)C(C)C)C1CCCCC1 (stereo not given in full)
- IC50 [1]: 100 µM

SMILES: CCN(CC)CCCN1CC(=O)N(C2CC2)CC1=O
- IC50 [2]: 20 µM

SMILES: CC(=O)N[C@H](C(=O)N[C@H](C(=O)C1C[C@H](Sc2ccc(Br)cc2)C[C@H]1C(=O)CC1(C(=O)O)CC1)C(C)C)C1CCCCC1 (stereo not given in full)
- IC50 [1]: 39.8 µM

SMILES: CC(C)N(CCN1CC(=O)N(CCc2ccc(Cl)cc2Cl)CC1=O)C(C)C
- IC50 [2]: 20 µM

SMILES: CC(=O)N[C@H](C(=O)N[C@H](C(=O)C1C[C@H](Oc2cccc(-c3ccccc3)c2)C[C@H]1C(=O)CC1(C(=O)O)CC1)C(C)C)C1CCCCC1 (stereo not given in full)
- IC50 [1]: 6.31 µM

SMILES: CC(=O)N[C@H](C(=O)N[C@H](C(=O)C1C[C@H](Oc2ccnc3ccccc23)C[C@H]1C(=O)CC1(C(=O)O)CC1)C(C)C)C1CCCCC1 (stereo not given in full)
- IC50 [1]: 5.01 µM

SMILES: CC(=O)N[C@H](C(=O)N[C@H](C(=O)C1C[C@H](Oc2cccnc2)C[C@H]1C(=O)CC1(C(=O)O)CC1)C(C)C)C1CCCCC1 (stereo not given in full)
- IC50 [1]: 200 µM

SMILES: COc1ccc(-c2ccccc2O[C@H]2CC(C(=O)[C@@H](NC(=O)[C@@H](NC(C)=O)C3CCCCC3)C(C)C)[C@H](C(=O)CC3(C(=O)O)CC3)C2)cc1 (stereo not given in full)
- IC50 [1]: > 200 µM

SMILES: CC(=O)N[C@H](C(=O)N[C@H](C(=O)C1C[C@H](Oc2ccc(Cl)c3cccnc23)C[C@H]1C(=O)CC1(C(=O)O)CC1)C(C)C)C1CCCCC1 (stereo not given in full)
- IC50 [1]: 100 µM

SMILES: CC(=O)N[C@H](C(=O)N[C@H](C(=O)C1C[C@H](Oc2nc3ccccc3s2)C[C@H]1C(=O)CC1(C(=O)O)CC1)C(C)C)C1CCCCC1 (stereo not given in full)
- IC50 [1]: 20 µM

SMILES: CC1CCCCN1CCCN1CC(=O)N(CCc2ccc(F)cc2)CC1=O (stereo not given)
- IC50 [2]: 20 µM

SMILES: CC(=O)N[C@H](C(=O)N[C@H](C(=O)C1C[C@H](Sc2ccnc3cc(C(F)(F)F)ccc23)C[C@H]1C(=O)CC1(C(=O)O)CC1)C(C)C)C1CCCCC1 (stereo not given in full)
- IC50 [1]: 10 µM

SMILES: CC(=O)N[C@H](C(=O)N[C@H](C(=O)C1C[C@H](Oc2cccnc2-c2ccsc2)C[C@H]1C(=O)CC1(C(=O)O)CC1)C(C)C)C1CCCCC1 (stereo not given in full)
- IC50 [1]: > 200 µM
